Experimental data reported in patent publication US8071586B2, “Heterocyclyl compounds” (Hoffmann-La Roche Inc., priority 2008, dated 2011).

Target: T1, human chemokine receptor 2 isoform B (CCR2) (Homo sapiens, UniProt P41597)
T1 sequence (P41597 1-360 isoform P41597-2): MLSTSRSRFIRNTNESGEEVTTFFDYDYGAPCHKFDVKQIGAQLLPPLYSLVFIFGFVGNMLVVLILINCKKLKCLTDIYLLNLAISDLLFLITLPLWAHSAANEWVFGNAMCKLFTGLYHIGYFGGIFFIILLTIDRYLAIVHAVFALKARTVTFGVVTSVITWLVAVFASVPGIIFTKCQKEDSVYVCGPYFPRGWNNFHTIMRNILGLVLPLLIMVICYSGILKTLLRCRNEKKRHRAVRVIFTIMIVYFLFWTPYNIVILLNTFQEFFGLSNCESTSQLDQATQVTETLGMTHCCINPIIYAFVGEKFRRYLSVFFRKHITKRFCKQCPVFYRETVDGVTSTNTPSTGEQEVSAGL
Assay: Calcium mobilization assay (FLIPR, MCP-1 stimulated CHOK1-CCR2B-A5 cells)
Assay type: cell-based
Settings: Ca mobilisation assay, CCR2 antagonist activity, inhibition of MCP-1 induced calcium increase
Procedure: Calcium Mobilization Assay
CHOK1-CCR2B-A5 cells (from Euroscreen) stably overexpressing the human chemokine receptor 2 isoform B were cultured in Nutrient Hams F12 medium supplemented with 5% FBS, 100 U/ml penicillin, 100 μg/ml streptomycin, 400 μg/ml G418 and 5 μg/ml puromycin.
For the assay cells were grown overnight in 384-well black clear flat bottom polystyrene plates (Costar) at 37° C. at 5% CO2. After washing with DMEM, 20 mM Hepes, 2.5 mM probenecid, 0.1% BSA (DMEM assay buffer) cells were loaded with 4 μM Fluo-4 in the same DMEM assay buffer for 2 hours at 30° C. Excess dye was removed and cells were washed with DMEM assay buffer. 384-well compound plates were prepared with DMEM assay buffer/0.5% DMSO with or without various concentrations of test compounds. Usually compounds were tested for agonist and antagonist activity.
Test compounds were added to the assay plate and agonist activity was monitored as fluorescence for 80 seconds with a FLIPR (488 nm excitation; 510-570 nm emission; Molecular Devices). After 20-30 min. of incubation at 30° C., […] MCP-1 (R&D; Roche) was added and fluorescence was monitored again for 80 seconds. Increases in intracellular calcium are reported as maximum fluorescence after agonist exposure minus basal fluorescence before exposure. Antagonist activity is indicated as inhibitor concentration required for 50% inhibition of specific calcium increases.

O=C1CCN(C(=S)Nc2ccc(Cl)c(Cl)c2)CCN1CCCN1CCCCC1 [Example 18, 5-Oxo-4-(3-piperidin-1-yl-propyl)-[1,4]diazepane-1-carbothioic acid (3,4-dichloro-phenyl)-amide]
IC50: 600 nM

CCNC(=O)OC[C@H](CCN1CCC2(CC2)[C@H](O)C1)N1CCN(C(=O)Nc2cccc(Cl)c2)[C@@H](C)C1=O [Example 111, Ethyl-carbamic acid (S)-2-[(S)-4-(3-chloro-phenylcarbamoyl)-3-methyl-2-oxo-piperazin-1-yl]-4-((S)-4-hydroxy-6-aza-spiro[2.5]oct-6-yl)-butyl ester]
IC50: 17 nM

C[C@H]1C(=O)N(CCCN2CCC3(CC3)[C@H](O)C2)CCN1C(=O)Nc1ccc(Cl)c(Cl)c1 [Example 45, (S)-4-[3-((S)-4-Hydroxy-6-aza-spiro[2.5]oct-6-yl)-propyl]-2-methyl-3-oxo-piperazine-1-carboxylic acid (3,4-dichloro-phenyl)-amide]
IC50: 2 nM

O=C1CCN(C(=O)Nc2ccc(Cl)c(Cl)c2)[C@H](Cc2ccccc2)CN1CCCN1CCCCC1 [Example 27, (R)-2-Benzyl-5-oxo-4-(3-piperidin-1-yl-propyl)-[1,4]diazepane-1-carboxylic acid (3,4-dichloro-phenyl)-amide]
IC50: 540 nM

COCC(CCN1CCC2(CC2)[C@H](O)C1)N1CCN(C(=O)Nc2ccc(Cl)c(Cl)c2)CCC1=O (stereo partly drawn) [Example 55, (R,S)-4-[3-((S)-4-Hydroxy-6-aza-spiro[2.5]oct-6-yl)-1-methoxymethyl-propyl]-5-oxo-[1,4]diazepane-1-carboxylic acid (3,4-dichloro-phenyl)-amide]
IC50: 4 nM

C[C@H]1C(=O)N(CCCCN2CCC3(CC3)[C@H](O)C2)CCN1C(=O)Nc1ccc(C(F)(F)F)cc1 [Example 88, (S)-4-[4-((S)-4-Hydroxy-6-aza-spiro[2.5]oct-6-yl)-butyl]-2-methyl-3-oxo-piperazine-1-carboxylic acid (4-trifluoromethyl-phenyl)-amide]
IC50: 97 nM

COC[C@H](CCN1CCC2(CC2)[C@H](O)C1)N1CCN(C(=O)Nc2cccc(Cl)c2)[C@@H](C)C1=O [Example 82, (S)-4-[(S)-3-((S)-4-Hydroxy-6-aza-spiro[2.5]oct-6-yl)-1-methoxymethyl-propyl]-2-methyl-3-oxo-piperazine-1-carboxylic acid (3-chloro-phenyl)-amide]
IC50: 4 nM

C[C@H]1C(=O)N(CCCN2CCC3(CC3)[C@H](O)C2)CCN1C(=O)NCc1ccc(Cl)cc1 [Example 77, (S)-4-[3-((S)-4-Hydroxy-6-aza-spiro[2.5]oct-6-yl)-propyl]-2-methyl-3-oxo-piperazine-1-carboxylic acid 4-chloro-benzylamide]
IC50: 110 nM

C[C@H]1C(=O)N(CCCCN2CCC3(CC3)[C@H](O)C2)CCN1C(=O)Nc1cccc(-c2ccccc2)c1 [Example 93, (S)-4-[4-((S)-4-Hydroxy-6-aza-spiro[2.5]oct-6-yl)-butyl]-2-methyl-3-oxo-piperazine-1-carboxylic acid biphenyl-3-ylamide]
IC50: 2 nM

C[C@@H]1CN(CCCN2CCCCC2)C(=O)CCN1C(=S)Nc1ccc(Cl)c(Cl)c1 [Example 26, (R)-2-Methyl-5-oxo-4-(3-piperidin-1-yl-propyl)-[1,4]diazepane-1-carbothioic acid (3,4-dichloro-phenyl)-amide]
IC50: 580 nM

C[C@H]1C(=O)N(CCCCN2CCC3(CC3)[C@H](O)C2)CCN1C(=O)Nc1cccc(C(F)(F)F)c1 [Example 89, (S)-4-[4-((S)-4-Hydroxy-6-aza-spiro[2.5]oct-6-yl)-butyl]-2-methyl-3-oxo-piperazine-1-carboxylic acid (3-trifluoromethyl-phenyl)-amide]
IC50: 25 nM

C[C@H]1C(=O)N(CCCN2CCC3(CC3)[C@H](O)C2)CCN1C(=O)Nc1cccc(Cl)c1 [Example 69, (S)-4-[3-((S)-4-Hydroxy-6-aza-spiro[2.5]oct-6-yl)-propyl]-2-methyl-3-oxo-piperazine-1-carboxylic acid (3-chloro-phenyl)-amide]
IC50: 5 nM

CC1CN(C(CO)CCN2CCC3(CC3)[C@H](O)C2)C(=O)CCN1C(=O)Nc1cccc(Cl)c1 (stereo in doubt) [Example 63, (R)-4-[(S)-3-((S)-4-Hydroxy-6-aza-spiro[2.5]oct-6-yl)-1-hydroxymethyl-propyl]-2-methyl-5-oxo-[1,4]diazepane-1-carboxylic acid (3-chloro-phenyl)-amide]
IC50: 5.1 nM

COC[C@H](CCN1CCCCC1)N1CCN(C(=O)Nc2ccc(Cl)c(Cl)c2)[C@@H](C)C1=O [Example 81, (S)-4-((S)-1-Methoxymethyl-3-piperidin-1-yl-propyl)-2-methyl-3-oxo-piperazine-1-carboxylic acid (3,4-dichloro-phenyl)-amide]
IC50: 9 nM

C[C@H]1C(=O)N(C[C@@H](O)CN2CCC3(CC3)[C@H](O)C2)CCN1C(=O)Nc1ccc(Cl)c(Cl)c1 [Example 120, (S)-4-[(S)-2-Hydroxy-3-((S)-4-hydroxy-6-aza-spiro[2.5]oct-6-yl)-propyl]-2-methyl-3-oxo-piperazine-1-carboxylic acid (3,4-dichloro-phenyl)-amide]
IC50: 2 nM

COCC(CCN1CCC2(CC2)[C@H](O)C1)N1CCN(C(=O)Nc2cccc(Cl)c2)CCC1=O (stereo partly drawn) [Example 5, (R,S)-4-[3-((S)-4-Hydroxy-6-aza-spiro[2.5]oct-6-yl)-1-methoxymethyl-propyl]-5-oxo-[1,4]diazepane-1-carboxylic acid (3-chloro-phenyl)-amide]
IC50: 50 nM

C[C@@H]1CN(CCCN2CCC3(CC3)[C@H](O)C2)C(=O)CCN1C(=O)Nc1ccc(Cl)c(Cl)c1 [Example 58, (R)-4-[3-((S)-4-Hydroxy-6-aza-spiro[2.5]oct-6-yl)-propyl]-2-methyl-5-oxo-[1,4]diazepane-1-carboxylic acid (3,4-dichloro-phenyl)-amide]
IC50: 3 nM

C[C@H]1C(=O)N(CCCN2CCC3(CC3)[C@H](O)C2)CCN1C(=O)Nc1ccccc1 [Example 74, (S)-4-[3-((S)-4-Hydroxy-6-aza-spiro[2.5]oct-6-yl)-propyl]-2-methyl-3-oxo-piperazine-1-carboxylic acid phenylamide]
IC50: 64 nM

C[C@H]1C(=O)N(CCCN2CCC3(CC3)[C@H](O)C2)CCN1C(=O)Nc1ccc(-c2ccccc2)cc1 [Example 76, (S)-4-[3-((S)-4-Hydroxy-6-aza-spiro[2.5]oct-6-yl)-propyl]-2-methyl-3-oxo-piperazine-1-carboxylic acid biphenyl-4-ylamide]
IC50: 3 nM

CC(=O)OC[C@H](CCN1CCC2(CC2)[C@H](O)C1)N1CCN(C(=O)Nc2ccc(Cl)c(Cl)c2)[C@@H](C)C1=O [Example 108, Acetic acid (S)-2-[(S)-4-(3,4-dichloro-phenylcarbamoyl)-3-methyl-2-oxo-piperazin-1-yl]-4-((S)-4-hydroxy-6-aza-spiro[2.5]oct-6-yl)-butyl ester]
IC50: 2 nM

COC(=O)OC[C@H](CCN1CCC2(CC2)[C@H](O)C1)N1CCN(C(=O)Nc2cccc(Cl)c2)[C@@H](C)C1=O [Example 110, Carbonic acid (S)-2-[(S)-4-(3-chloro-phenylcarbamoyl)-3-methyl-2-oxo-piperazin-1-yl]-4-((S)-4-hydroxy-6-aza-spiro[2.5]oct-6-yl)-butyl ester methyl ester]
IC50: 5 nM

C[C@H]1C(=O)N(CCCCN2CCC3(CC3)[C@H](O)C2)CCN1C(=O)Nc1cccc(Cl)c1 [Example 87, (S)-4-[4-((S)-4-Hydroxy-6-aza-spiro[2.5]oct-6-yl)-butyl]-2-methyl-3-oxo-piperazine-1-carboxylic acid (3-chloro-phenyl)-amide]
IC50: 5 nM

COC[C@H](CCN1CCC2(CC2)[C@H](O)C1)N1CCN(C(=O)Nc2ccccc2)[C@@H](C)C1=O [Example 84, (S)-4-[(S)-3-((S)-4-Hydroxy-6-aza-spiro[2.5]oct-6-yl)-1-methoxymethyl-propyl]-2-methyl-3-oxo-piperazine-1-carboxylic acid phenylamide]
IC50: 42 nM

COC[C@H](CCN1CCC2(CC2)[C@H](O)C1)N1CCN(C(=O)Nc2ccc(Cl)c(Cl)c2)[C@@H](C)C1=O [Example 80, (S)-4-[(S)-3-((S)-4-Hydroxy-6-aza-spiro[2.5]oct-6-yl)-1-methoxymethyl-propyl]-2-methyl-3-oxo-piperazine-1-carboxylic acid (3,4-dichloro-phenyl)-amide]
IC50: 1 nM

C[C@H]1C(=O)N(C[C@H](O)CN2CCC3(CC3)[C@H](O)C2)CCN1C(=O)Nc1cccc(Cl)c1 [Example 123, (S)-4-[(R)-2-Hydroxy-3-((S)-4-hydroxy-6-aza-spiro[2.5]oct-6-yl)-propyl]-2-methyl-3-oxo-piperazine-1-carboxylic acid (3-chloro-phenyl)-amide]
IC50: 248 nM
